Reference: patent US5210290A, “Fluorobenzenesulfonamides” (Schering Aktiengesellschaft, priority 1990, dated 1993)

Tests used:
LD50, mouse = details: in vivo
pKa (37° C.) = format: physicochemical
[1] = pH dependency of the 19F NMR chemical shift (ppm/pH); format: physicochemical; details: change of 19F chemical shift per pH unit
From the text: Determination of the pH value with the aid of NMR spectroscopy is based on the measurement of the signals from a chemical compound which is in a pH-dependent, reversible equilibrium. If this equilibrium is slow with respect to the NMR time scale, then the signals of all components can be obtained, and the signal intensities correspond to the concentrations of the equilibrium components. In contrast thereto, with a fast equilibrium, only one signal can be measured, and the chemical shift is given by the chemical displacement of the equilibrium components and their concentration.
In a two-component equilibrium, with knowledge of the pKa value and the chemical shift of the components, it is then possible to calculate the pH value with the aid of the Henderson-Hasselbalch equation.
The frequency (chemical shift) of a fluorine line is determined by the position of the F atom in the molecule. This also holds true, in principle, for all other atomic nuclei, but the chemical shift is especially strongly pronounced in case of the fluorine atom. In order to observe and/or quantify a shift of the fluorine signal, a related (reference) line is needed. This frequency line can be the ^1 H signal, an external F standard or, respectively, an unchanging F line which is likewise within the area to be measured. […]

Compound | LD50 (LD50, mouse) [µmol/kg] | pKa (pKa (37° C.)) | ppm/pH [1] [ppm/pH]
O=C(O)CN(CC(=O)O)C(=O)CS(=O)(=O)Nc1ccc(F)cc1C(F)(F)F [Example 10, 2-[2-[N-(4-Fluoro-2-trifluoromethylphenyl)sulfamoyl]acetylimino]diacetic Acid] | ≤ 7500 | 6.68 | 4.94
O=C(O)CCNC(=O)CCS(=O)(=O)Nc1ccc(F)cc1C(F)(F)F [Example 48, 3-[3-[N-(4-Fluoro-2-trifluoromethylphenyl)sulfamoyl]propionylamino]propionic Acid] | 4000 | 6.91 | 5.21
